Data: US20160303245A1, “FATTY ACID DERIVATIVES OF DIMERIC INHIBITORS OF PSD-95” (UNIVERSITY OF COPENHAGEN, priority 2013, published 2016)
Several values for one entry are separate records, joined by “and”; a condition that tells them apart may be missing. Equal values may be shown once. Read-outs that look alike come from different tables or passages of the source.

Key:
[1] = molecular target: T1, HSA (Homo sapiens, UniProt P02768); experiment: Transil XL HSA binding assay (immobilized HSA, unbound compound quantified by RP-HPLC)
T1 construct: purchased Sovicell GMBH, Leipzig, Germany
T1 sequence (P02768 25-609): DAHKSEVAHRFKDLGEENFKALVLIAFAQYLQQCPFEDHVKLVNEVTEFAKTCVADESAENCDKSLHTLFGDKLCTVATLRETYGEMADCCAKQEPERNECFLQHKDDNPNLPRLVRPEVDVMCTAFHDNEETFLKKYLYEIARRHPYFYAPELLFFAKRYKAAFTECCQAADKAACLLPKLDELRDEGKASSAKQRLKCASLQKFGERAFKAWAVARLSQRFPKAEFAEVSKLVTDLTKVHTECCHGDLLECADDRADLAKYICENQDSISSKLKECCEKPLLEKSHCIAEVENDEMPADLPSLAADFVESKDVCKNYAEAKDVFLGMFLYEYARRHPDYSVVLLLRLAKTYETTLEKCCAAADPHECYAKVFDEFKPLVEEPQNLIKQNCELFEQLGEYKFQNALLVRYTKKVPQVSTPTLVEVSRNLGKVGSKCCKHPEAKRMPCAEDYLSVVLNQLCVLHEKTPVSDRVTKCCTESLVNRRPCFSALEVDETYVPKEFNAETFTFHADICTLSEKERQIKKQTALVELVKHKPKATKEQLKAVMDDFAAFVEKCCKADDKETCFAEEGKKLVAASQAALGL
Method: The synthesized FA-linked dimeric ligands (1-12) were evaluated for their HSA affinity using a Transil^XL HSA binding assay kit (Sovicell GMBH, Leipzig, Germany). […] The assay kit consisted of prefilled wells with increasing concentrations of immobilized HSA as well as two control wells without HSA. The HSA had been immobilized in a random fashion to ensure that all binding sites on HSA were available. To conduct the assay, the wells were incubated with a known concentration of the tested compounds, and the unbound amount of compound was quantified using analytical RP-HPLC (C8 column). The fraction of unbound drug (fu) for each data point was calculated from the RP-HPLC data by comparison to a control sample without HSA. […] In eq. 1, it is assumed that the concentration of drug-bound HSA ([HSA-D]) is much lower than the total concentration of HSA in the well ([HSA-D]<<cHSA). The assay kit has been designed such that the assumption is valid for compounds where fu>1%. The calculated KD-values were used to calculate fb at physiological concentration of HSA (588 μM) using equation 2.

[2] = molecular target: PSD-95 PDZ1-2 (Homo sapiens, UniProt P78352); experiment: In vitro fluorescence polarization (FP) competition binding assay, in TBS and modified with 1% HSA
PSD-95 PDZ1-2, sequence (P78352 61-249 limits assumed): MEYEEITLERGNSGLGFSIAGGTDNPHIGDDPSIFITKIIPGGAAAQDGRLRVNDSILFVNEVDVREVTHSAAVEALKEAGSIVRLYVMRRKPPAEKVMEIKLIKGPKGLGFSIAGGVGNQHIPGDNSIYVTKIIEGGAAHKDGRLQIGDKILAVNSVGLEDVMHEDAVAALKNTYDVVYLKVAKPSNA
Method: Affinity to PSD-95 was measured using an in vitro fluorescence polarization (FP) assay as described by Bach et al (PNAS USA, 2012, 109, 3317-3322). First, a saturation binding curve was obtained to determine KD values for the interaction between a dimeric fluorescent probe and PSD-95 PDZ1-2. Increasing concentrations of PDZ1-2 were added to a constant concentration (0.5 nM) of the probe. The fluorescence polarization of the samples was measured at excitation/emission wavelengths of 635/670 nm and the FP values were fitted to a one site binding model using the program GraphPad Prism. […] The FP values were fitted to a one site competition (variable slope) model in GraphPad Prism. The resulting IC50 were converted to competition inhibition constants, Ki values, as described (Nikolovska-Coleska et al, Anal Biochem, 2004, 332, 261-273). The modified FP assay was conducted as described above with 1% HSA in the assay. The synthesized FA-linked dimeric ligands were evaluated for their affinity to PSD-95 PDZ1-2 in the FP assay. […] We first measured the affinities using a simple tris-buffered saline (TBS) buffer (Table 2, FIG. 3A); but furthermore, we investigated if HSA influenced the ability of the FA-linked dimers to bind PSD95 PDZ1-2 by conducting the FP assay with HSA present in the assay buffer (Table 2, FIG. 3B). […] For a traditional small-molecule drug, it is commonly accepted that the unbound fraction of the drug is free to diffuse across membranes and exerts the physiological effect by interacting with its target (Berezhkovskiy et al, J Pharm Sci 2007, 96, 249-257). I.e. if the drug is bound to another molecule, then it cannot interact with the target at the same time.

[3] = FP in TBS with 1% HSA (~150 μM), mean ± SEM, n ≧ 3, read-out: Ki(PSD95) + HSA

SMILES | fraction unbound [1] | other results
CCCCCCCCCCCCCCCCCC(=O)NCCCC(=O)N(CCOCCOCCC(=O)N[C@H](C(=O)N[C@@H](CCC(=O)O)C(=O)N[C@H](C(=O)N[C@@H](C)C(=O)N[C@H](C(=O)O)C(C)C)[C@@H](C)O)[C@@H](C)CC)CCOCCOCCC(=O)N[C@H](C(=O)N[C@@H](CCC(=O)O)C(=O)N[C@H](C(=O)N[C@@H](C)C(=O)N[C@H](C(=O)O)C(C)C)[C@@H](C)O)[C@@H](C)CC [Compound 3] | 0.031 | Kd [1]: 4.8 µM; Ki ([2]; FP data (TBS+HSA) corrected for calculated fu, read-out: Ki(PSD95), free ligand): 57.2 nM; Ki [2, 3]: 1890 ± 155 nM; Ki ([2]; FP in TBS, mean ± SEM, n ≧ 3, read-out: Ki(PSD95)): 11.1 nM
CC[C@H](C)[C@H](NC(=O)CCOCCOCCN(CCOCCOCCC(=O)N[C@H](C(=O)N[C@@H](CCC(=O)O)C(=O)N[C@H](C(=O)N[C@@H](C)C(=O)N[C@H](C(=O)O)C(C)C)[C@@H](C)O)[C@@H](C)CC)C(=O)CCCCNC(=O)CCCCCCCCCCCCCCCCC(=O)O)C(=O)N[C@@H](CCC(=O)O)C(=O)N[C@H](C(=O)N[C@@H](C)C(=O)N[C@H](C(=O)O)C(C)C)[C@@H](C)O [Compound 12] | 0.083 | –
CC[C@H](C)[C@H](NC(=O)CCOCCOCCN(CCOCCOCCC(=O)N[C@H](C(=O)N[C@@H](CCC(=O)O)C(=O)N[C@H](C(=O)N[C@@H](C)C(=O)N[C@H](C(=O)O)C(C)C)[C@@H](C)O)[C@@H](C)CC)C(=O)CCCCNC(=O)CCCCCCCCCCC(=O)O)C(=O)N[C@@H](CCC(=O)O)C(=O)N[C@H](C(=O)N[C@@H](C)C(=O)N[C@H](C(=O)O)C(C)C)[C@@H](C)O [Compound 10] | 0.615 | –
CC[C@H](C)[C@H](NC(=O)CCOCCOCCN(CCOCCOCCC(=O)N[C@H](C(=O)N[C@@H](CCC(=O)O)C(=O)N[C@H](C(=O)N[C@@H](CC(=O)O)C(=O)N[C@H](C(=O)O)C(C)C)[C@@H](C)O)[C@@H](C)CC)C(=O)[C@H](CCCNC(=N)N)NC(=O)[C@H](CCCNC(=N)N)NC(=O)[C@H](CCCNC(=N)N)NC(=O)[C@H](CCC(N)=O)NC(=O)[C@H](CCCNC(=N)N)NC(=O)[C@H](CCCNC(=N)N)NC(=O)[C@H](CCCCN)NC(=O)[C@H](CCCCN)NC(=O)[C@H](CCCNC(=N)N)NC(=O)CNC(=O)[C@@H](N)Cc1ccc(O)cc1)C(=O)N[C@@H](CCC(=O)O)C(=O)N[C@H](C(=O)N[C@@H](CC(=O)O)C(=O)N[C@H](C(=O)O)C(C)C)[C@@H](C)O [UCCB01-144, reference compound] | – | fb (%), HSA bound fraction ([1]; calculated from KD at physiological concentration of HSA (588 μM), equation 2): 65% and 65.3 ± 2.9%; fraction unbound ([1]; calculated from equation 2 at HSA concentration of 150 μM, read-out: fu (%), calculated fraction of unbound drug): 0.679; Kd ([1]; mean ± SEM, n = 3, read-out: KD(HSA)): 318 µM
CCCCCCCCCCCCCCCCCC(=O)NCCCCC(=O)N(CCOCCOCCC(=O)N[C@H](C(=O)N[C@@H](CCC(=O)O)C(=O)N[C@H](C(=O)N[C@@H](C)C(=O)N[C@H](C(=O)O)C(C)C)[C@@H](C)O)[C@@H](C)CC)CCOCCOCCC(=O)N[C@H](C(=O)N[C@@H](CCC(=O)O)C(=O)N[C@H](C(=O)N[C@@H](C)C(=O)N[C@H](C(=O)O)C(C)C)[C@@H](C)O)[C@@H](C)CC [Compound 11] | 0.078 | Ki [2, 3]: 1890 ± 100 nM
CCCCCCCCCCCCCCCCCC(=O)N[C@@H](CCC(=O)N(CCOCCOCCC(=O)N[C@H](C(=O)N[C@@H](CCC(=O)O)C(=O)N[C@H](C(=O)N[C@@H](CC(=O)O)C(=O)N[C@H](C(=O)O)C(C)C)[C@@H](C)O)[C@@H](C)CC)CCOCCOCCC(=O)N[C@H](C(=O)N[C@@H](CCC(=O)O)C(=O)N[C@H](C(=O)N[C@@H](CC(=O)O)C(=O)N[C@H](C(=O)O)C(C)C)[C@@H](C)O)[C@@H](C)CC)C(=O)O [Compound 15] | 0.268 | Kd [1]: 55 ± 3.4 µM
CC[C@H](C)[C@H](NC(=O)CCOCCOCCN(CCOCCOCCC(=O)N[C@H](C(=O)N[C@@H](CCC(=O)O)C(=O)N[C@H](C(=O)N[C@@H](CC(=O)O)C(=O)N[C@H](C(=O)O)C(C)C)[C@@H](C)O)[C@@H](C)CC)C(=O)CCCNC(=O)CCCCCCCCCCCCCCCCC(=O)O)C(=O)N[C@@H](CCC(=O)O)C(=O)N[C@H](C(=O)N[C@@H](CC(=O)O)C(=O)N[C@H](C(=O)O)C(C)C)[C@@H](C)O [Compound 14] | 0.436 | Kd [1]: 116 ± 7.6 µM

Now from value to molecule, other results behind:

fraction unbound [1] | SMILES | other results
0.271 | CCCCCCCCCCCC(=O)NCCCCC(=O)N(CCOCCOCCC(=O)N[C@H](C(=O)N[C@@H](CCC(=O)O)C(=O)N[C@H](C(=O)N[C@@H](C)C(=O)N[C@H](C(=O)O)C(C)C)[C@@H](C)O)[C@@H](C)CC)CCOCCOCCC(=O)N[C@H](C(=O)N[C@@H](CCC(=O)O)C(=O)N[C@H](C(=O)N[C@@H](C)C(=O)N[C@H](C(=O)O)C(C)C)[C@@H](C)O)[C@@H](C)CC [Compound 9] | –
0.147 | CCCCCCCCCCCC(=O)N[C@@H](CCC(=O)N(CCOCCOCCC(=O)N[C@H](C(=O)N[C@@H](CCC(=O)O)C(=O)N[C@H](C(=O)N[C@@H](C)C(=O)N[C@H](C(=O)O)C(C)C)[C@@H](C)O)[C@@H](C)CC)CCOCCOCCC(=O)N[C@H](C(=O)N[C@@H](CCC(=O)O)C(=O)N[C@H](C(=O)N[C@@H](C)C(=O)N[C@H](C(=O)O)C(C)C)[C@@H](C)O)[C@@H](C)CC)C(=O)O [Compound 5] | –
0.247 | CC[C@H](C)[C@H](NC(=O)CCOCCOCCN(CCOCCOCCC(=O)N[C@H](C(=O)N[C@@H](CCC(=O)O)C(=O)N[C@H](C(=O)N[C@@H](C)C(=O)N[C@H](C(=O)O)C(C)C)[C@@H](C)O)[C@@H](C)CC)C(=O)CCCNC(=O)CCCCCCCCCCC(=O)O)C(=O)N[C@@H](CCC(=O)O)C(=O)N[C@H](C(=O)N[C@@H](C)C(=O)N[C@H](C(=O)O)C(C)C)[C@@H](C)O [Compound 2] | –
0.186 | CC[C@H](C)[C@H](NC(=O)CCOCCOCCN(CCOCCOCCC(=O)N[C@H](C(=O)N[C@@H](CCC(=O)O)C(=O)N[C@H](C(=O)N[C@@H](C)C(=O)N[C@H](C(=O)O)C(C)C)[C@@H](C)O)[C@@H](C)CC)C(=O)CC[C@H](NC(=O)CCCCCCCCCCCCCCCCC(=O)O)C(=O)O)C(=O)N[C@@H](CCC(=O)O)C(=O)N[C@H](C(=O)N[C@@H](C)C(=O)N[C@H](C(=O)O)C(C)C)[C@@H](C)O [Compound 8] | –
0.301 | CC[C@H](C)[C@H](NC(=O)CCOCCOCCN(CCOCCOCCC(=O)N[C@H](C(=O)N[C@@H](CCC(=O)O)C(=O)N[C@H](C(=O)N[C@@H](C)C(=O)N[C@H](C(=O)O)C(C)C)[C@@H](C)O)[C@@H](C)CC)C(=O)CC[C@H](NC(=O)CCCCCCCCCCC(=O)O)C(=O)O)C(=O)N[C@@H](CCC(=O)O)C(=O)N[C@H](C(=O)N[C@@H](C)C(=O)N[C@H](C(=O)O)C(C)C)[C@@H](C)O [Compound 6] | –
